Earlier results, collected in patent US10894875B2, “Films and unit dose articles comprising aversive UV-protective agents, and uses and methods related thereto” (The Procter & Gamble Company, priority 2017, dated 2021).
Marks after values point to notes of the source that are not given here.

Columns and labels:
[1] = reference quinine; lower values correspond to stronger bittering
[2] = Scoville heat units
[3] = high assessed based on melting point; low = hydrolysis; based on literature

Question: With C=C[C@H]1C[N@@]2CC[C@H]1C[C@H]2[C@H](O)c1ccnc2ccc(OC)cc12 [Ex. 7, Quinine, reference compound] as the compound, how does the Bittering index [1] read?
Answer: The Bittering index was 0^d.

Question: For COc1cc(CNC(=O)CCCC/C=C/C(C)C)ccc1O [capsaicin], which pungency level [2] is on record?
Answer: Its pungency level is “about 16,000,000 SHU”.

Question: Which Thermostability [3] does the source give for CCCCCOC(=O)c1ccc(N(C)C)cc1 [Ex. 6, Padimate A, reference compound] here?
Answer: Its Thermostability is “Low^c”.
